Source: patent publication US10913727B2, “Modulators of the integrated stress pathway” (Calico Life Sciences LLC, priority 2016, dated 2021)

Test system: HEK293T cells carrying the ATF4 luciferase reporter
Test: ATF4-Luc assay, in vitro model of Vanishing Cell White Matter Disease (VWMD)
Format: cell-based
Details: Homo sapiens, HEK-293T, 1 μg/mL tunicamycin, 7 hours, One Glo luminescence
Summary of the method: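 Stable HEK293T line with human ATF4 5′-UTR–firefly luciferase reporter treated with 1 μg/mL tunicamycin plus 200 nM compound for 7 h. Luminescence read; EC50 derived.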

SMILES	EC50 [nM]
O=C(COc1ccc(Cl)c(F)c1)NC12CC(NC(=O)c3cnc4ccnn4c3)(C1)C2 [Compound 690, N-{3-[2-(4-chloro-3-fluorophenoxy)acetamido]bicyclo[1.1.1]pentan-1-yl}pyrazolo[1,5-a]pyrimidine-6-carboxamide]	250 to 1000
O=C(COc1ccc(Cl)c(F)c1)NC12CC(NC(=O)c3cc4ccccn4n3)(C1)C2 [Compound 119, N-{3-[2-(4-chloro-3-fluorophenoxy)acetamido]bicyclo[1.1.1]pentan-1-yl}pyrazolo[1,5-a]pyridine-2-carboxamide]	250 to 1000
COc1ccc(C(=O)NC23CC(NC(=O)COc4ccc(Cl)c(F)c4)(C2)C3)cc1 [Compound 533, N-{3-[2-(4-chloro-3-fluorophenoxy)acetamido]bicyclo[1.1.1]pentan-1-yl}-4-methoxybenzamide]	50 to 250
O=C(COc1ccc(Cl)c(F)c1)NC12CCC(NC(=O)c3ccc(OC(F)(F)F)nc3)(C1)C2 [Compound 298, N-{4-[2-(4-chloro-3-fluorophenoxy)acetamido]bicyclo[2.1.1]hexan-1-yl}-6-(trifluoromethoxy)pyridine-3-carboxamide]	50 to 250
Cc1cc2c(NC34CC(NC(=O)COc5cccc(OC(F)(F)F)c5)(C3)C4)nccn2n1 [Compound 424, N-{3-[(2-methylpyrazolo[1,5-a]pyrazin-4-yl)amino]bicyclo[1.1.1]pentan-1-yl}-2-[3-(trifluoromethoxy)phenoxy]acetamide]	1000 to 2000
Cc1cc(C(=O)NC23CCC(NC(=O)COc4ccc(Cl)c(F)c4)(C2)C3)on1 [Compound 324, N-{4-[2-(4-chloro-3-fluorophenoxy)acetamido]bicyclo[2.1.1]hexan-1-yl}-3-methyl-1,2-oxazole-5-carboxamide]	250 to 1000
Cc1noc(C(=O)NC23CCC(NC(=O)COc4ccc(Cl)c(F)c4)(CC2)[C@@H](O)C3)n1 [Compound 575, N-{(3S)-4-[2-(4-chloro-3-fluorophenoxy)acetamido]-3-hydroxybicyclo[2.2.2]octan-1-yl}-3-methyl-1,2,4-oxadiazole-5-carboxamide]	< 50
COc1cncc(NC23CC(NC(=O)COc4ccc(Cl)c(F)c4)(C2)C3)n1 [Compound 756, 2-(4-chloro-3-fluorophenoxy)-N-{3-[(6-methoxypyrazin-2-yl)amino]bicyclo[1.1.1]pentan-1-yl}acetamide]	250 to 1000
COc1ccc(C(=O)NC23CCC(NC(=O)COc4ccc(Cl)c(F)c4)(CC2)C(O)C3)nc1 (stereo not drawn) [Compound 922, N-{4-[2-(4-chloro-3-fluorophenoxy)acetamido]-3-hydroxybicyclo[2.2.2]octan-1-yl}-5-methoxypyridine-2-carboxamide]	250 to 1000
Cc1cc2c(NC34CC(NC(=O)COc5ccc(Cl)c(Cl)c5)(C3)C4)nccn2n1 [Compound 494, 2-(3,4-dichlorophenoxy)-N-{3-[(2-methylpyrazolo[1,5-a]pyrazin-4-yl)amino]bicyclo[1.1.1]pentan-1-yl}acetamide]	< 50
CCc1cnc(C(=O)NC23CC(NC(=O)COc4ccc(Cl)c(F)c4)(C2)C3)cn1 [Compound 708, N-{3-[2-(4-chloro-3-fluorophenoxy)acetamido]bicyclo[1.1.1]pentan-1-yl}-5-ethylpyrazine-2-carboxamide]	50 to 250
O=C(COc1ccc(Cl)c(F)c1)NC12CCC(NC(=O)c3cc(C(F)(F)F)ccn3)(CC1)CC2O (stereo not drawn) [Compound 933, N-{4-[2-(4-chloro-3-fluorophenoxy)acetamido]-3-hydroxybicyclo[2.2.2]octan-1-yl}-4-(trifluoromethyl)pyridine-2-carboxamide]	50 to 250
O=C(COc1ccc(Cl)c(F)c1)NC12CC(NC(=O)c3cnc(C(F)(F)F)nc3)(C1)C2 [Compound 133, N-{3-[2-(4-chloro-3-fluorophenoxy)acetamido]bicyclo[1.1.1]pentan-1-yl}-2-(trifluoromethyl)pyrimidine-5-carboxamide]	1000 to 2000
COCc1nc(C(=O)NC23CC(NC(=O)COc4ccc(Cl)c(F)c4)(C2)C3)cs1 [Compound 926, N-{3-[2-(4-chloro-3-fluorophenoxy)acetamido]bicyclo[1.1.1]pentan-1-yl}-2-(methoxymethyl)-1,3-thiazole-4-carboxamide]	50 to 250
Cc1nccnc1NC12CC(NC(=O)COc3ccc(Cl)c(F)c3)(C1)C2 [Compound 678, 2-(4-chloro-3-fluorophenoxy)-N-{3-[(3-methylpyrazin-2-yl)amino]bicyclo[1.1.1]pentan-1-yl}acetamide]	1000 to 2000
O=C(COc1ccc(Cl)c(F)c1)NC12CC(NC(=O)c3cc4nccnc4s3)(C1)C2 [Compound 886, N-{3-[2-(4-chloro-3-fluorophenoxy)acetamido]bicyclo[1.1.1]pentan-1-yl}thieno[2,3-b]pyrazine-6-carboxamide]	250 to 1000
Cn1ncc2cc(C(=O)NC34CC(NC(=O)COc5ccc(Cl)c(F)c5)(C3)C4)cnc21 [Compound 620, N-{3-[2-(4-chloro-3-fluorophenoxy)acetamido]bicyclo[1.1.1]pentan-1-yl}-1-methyl-1H-pyrazolo[3,4-b]pyridine-5-carboxamide]	1000 to 2000

SMILES	EC50 [nM]
Cn1cc2ccnc(NC34CC(NC(=O)COc5ccc(Cl)c(F)c5)(C3)C4)c2n1 [Compound 493, 2-(4-chloro-3-fluorophenoxy)-N-{3-[(2-methyl-2H-pyrazolo[3,4-c]pyridin-7-yl)amino]bicyclo[1.1.1]pentan-1-yl}acetamide]	50 to 250
O=C(COc1ccc(Cl)c(F)c1)NC12CCC(NC(=O)c3cccnn3)(CC1)C(O)C2 (stereo not drawn) [Compound 227, N-{4-[2-(4-chloro-3-fluorophenoxy)acetamido]-2-hydroxybicyclo[2.2.2]octan-1-yl}pyridazine-3-carboxamide]	250 to 1000
CCc1cc(C(=O)NC23CCC(NC(=O)COc4ccc(Cl)c(F)c4)(C2)C3)n(C)n1 [Compound 571, N-{4-[2-(4-chloro-3-fluorophenoxy)acetamido]bicyclo[2.1.1]hexan-1-yl}-3-ethyl-1-methyl-1H-pyrazole-5-carboxamide]	250 to 1000
Cc1nc(C(=O)NC23CCC(NC(=O)COc4ccc(Cl)c(F)c4)(CC2)[C@@H](O)C3)n[nH]1 [Compound 673, N-{(3S)-4-[2-(4-chloro-3-fluorophenoxy)acetamido]-3-hydroxybicyclo[2.2.2]octan-1-yl}-5-methyl-1H-1,2,4-triazole-3-carboxamide]	50 to 250
Cc1ncc(-c2ncc(C(=O)NC34CC(NC(=O)COc5ccc(Cl)c(F)c5)(C3)C4)o2)cn1 [Compound 109, N-{3-[2-(4-chloro-3-fluorophenoxy)acetamido]bicyclo[1.1.1]pentan-1-yl}-2-(2-methylpyrimidin-5-yl)-1,3-oxazole-5-carboxamide]	250 to 1000
CC(C)(O)c1cccc(C(=O)NC23CC(NC(=O)COc4ccc(Cl)c(F)c4)(C2)C3)c1 [Compound 386, N-{3-[2-(4-chloro-3-fluorophenoxy)acetamido]bicyclo[1.1.1]pentan-1-yl}-3-(2-hydroxypropan-2-yl)benzamide]	> 2000
Cn1ccc(C(=O)NC23CC(NC(=O)COc4ccc(Cl)c(Cl)c4)(C2)C3)n1 [Compound 713, N-{3-[2-(3,4-dichlorophenoxy)acetamido]bicyclo[1.1.1]pentan-1-yl}-1-methyl-1H-pyrazole-3-carboxamide]	50 to 250
Cc1cc(C(=O)N(C)C23CC(NC(=O)COc4ccc(Cl)c(F)c4)(C2)C3)on1 [Compound 355, N-{3-[2-(4-chloro-3-fluorophenoxy)acetamido]bicyclo[1.1.1]pentan-1-yl}-N,3-dimethyl-1,2-oxazole-5-carboxamide]	1000 to 2000
O=C(COc1ccc(Cl)c(F)c1)NC12CCC(NC(=O)c3cnccn3)(CC1)[C@@H](O)C2 [Compound 732, N-{(2S)-4-[2-(4-chloro-3-fluorophenoxy)acetamido]-2-hydroxybicyclo[2.2.2]octan-1-yl}pyrazine-2-carboxamide]	250 to 1000
O=C(COc1ccc(Cl)c(F)c1)NC12CCC(NC(=O)c3cc(Cl)no3)(CC1)CC2O (stereo not drawn) [Compound 414, 3-chloro-N-{4-[2-(4-chloro-3-fluorophenoxy)acetamido]-3-hydroxybicyclo[2.2.2]octan-1-yl}-1,2-oxazole-5-carboxamide]	50 to 250
Cc1cc(C)c(C(=O)NC23CC(NC(=O)COc4ccc(Cl)c(F)c4)(C2)C3)cn1 [Compound 815, N-{3-[2-(4-chloro-3-fluorophenoxy)acetamido]bicyclo[1.1.1]pentan-1-yl}-4,6-dimethylpyridine-3-carboxamide]	> 2000
O=C(COc1ccc(Cl)c(F)c1)NC12CC(NC(=O)c3cncc(F)c3)(C1)C2 [Compound 792, N-{3-[2-(4-chloro-3-fluorophenoxy)acetamido]bicyclo[1.1.1]pentan-1-yl}-5-fluoropyridine-3-carboxamide]	250 to 1000
O=C(COc1ccc(Cl)c(F)c1)NC12CC(NC(=O)c3ccc(/C=C/C4CC4)cn3)(C1)C2 [Compound 283, N-{3-[2-(4-chloro-3-fluorophenoxy)acetamido]bicyclo[1.1.1]pentan-1-yl}-5-[(E)-2-cyclopropylethenyl]pyridine-2-carboxamide]	< 50
O=C(COc1ccc(Cl)c(F)c1)NC12CCC(NC(=O)c3cnc(C(F)F)cn3)(CC1)C(F)C2 (stereo not drawn) [Compound 373, N-{4-[2-(4-chloro-3-fluorophenoxy)acetamido]-2-fluorobicyclo[2.2.2]octan-1-yl}-5-(difluoromethyl)pyrazine-2-carboxamide]	250 to 1000
O=C(COc1ccc(Cl)c(F)c1)NC12CCC(NC(=O)c3ccncc3)(CC1)C(O)C2 (stereo not drawn) [Compound 218, N-{4-[2-(4-chloro-3-fluorophenoxy)acetamido]-2-hydroxybicyclo[2.2.2]octan-1-yl}pyridine-4-carboxamide]	> 2000
Cn1cc(-c2cc(C(=O)NC34CCC(NC(=O)COc5ccc(Cl)c(F)c5)(CC3)C(O)C4)on2)cn1 (stereo not drawn) [Compound 633, N-{4-[2-(4-chloro-3-fluorophenoxy)acetamido]-3-hydroxybicyclo[2.2.2]octan-1-yl}-3-(1-methyl-1H-pyrazol-4-yl)-1,2-oxazole-5-carboxamide]	50 to 250
